Reference: US8114911B2, “Prostaglandin compounds for the treatment of obesity” (Sucampo AG, priority 2003, dated 2012)
“Also recorded” adds a separate entry of the source.

Assay: Body weight change in volunteers after 21 days of oral test capsules
Assay type: in vivo, human
Details: oral capsules before meals, 24, 48 or 72 μg of test substance per day for 21 days, body weight 3 weeks after initiation vs before, placebo control group increased
Method: 13,14-dihydro-15-keto-16,16-difluoro-PGE1 was used as the test substance. Test capsule for oral administration containing 24 μg of the test substance and placebo capsule made from inert ingredients which was identical to the test capsule were prepared.
Volunteers were divided into 4 groups. The test groups received 24, 48 and 72 μg of the test substance per day respectively and the control group received the placebo. All volunteers were instructed to take one capsule before each meal (morning-, day- and evening-time) everyday for 21 days. Test group I (27 volunteers) received 24 μg of the test substance per day by taking the test capsule at the morning time and the placebo capsule at each of the day and evening times; test group II (32 volunteers) received 48 μg of the test substance per day by taking the test capsule at each of the morning and evening times and the placebo capsule at the day time; test group III (32 volunteers) received 72 μg of the test substance by taking the test capsule three times per day. Control group (33 volunteers) received the placebo capsule every time. Volunteers were instructed to take each capsule with 8 ounces of water prior to eating a meal. Body weight was measured before and 3 weeks after the initiation of the administration.

CCCCC(F)(F)C(=O)CCC1C(O)CC(=O)C1CCCCCCC(=O)O (stereo not shown) [13,14-dihydro-15-keto-16,16-difluoro-PGE1]
changes of body weight from the pre-values: body weight reductions were observed in all test groups; also recorded: decreased in a dose dependent manner
